# Experimental data as given in ChEMBL document CHEMBL5634071, “Fluorine in anti-HIV drugs approved by FDA from 1981 to 2023” (Eur J Med Chem, 2023).
# How the values were obtained:
# [1] = tested on: Human immunodeficiency virus 1; test: Antiviral activity against HIV-1 IIIB infected in human MT4 cells incubated for 7 days by ELISA; assay type: functional, organism-based; conditions: Human immunodeficiency virus 1, IIIB, MT4, 168 h
# [2] = tested on: Human immunodeficiency virus 1; test: Antiviral activity against HIV-1 infected in lymphoblastoid cell (unknown origin); conditions: Human immunodeficiency virus 1, Lymphoblastoid cell
# [3] = tested on: Human immunodeficiency virus 1; test: Antiviral activity against HIV-1 infected in human HeLa-MAGI-CCR5 cells; conditions: Human immunodeficiency virus 1, HeLa-MAGI-CCR5
# [4] = tested on: Human immunodeficiency virus 1; test: Antiviral activity against HIV-1 infected in PBMC (unknown origin); conditions: Human immunodeficiency virus 1, PBMC
# [5] = Cytotoxicity against lymphoblastoid cell (unknown origin); conditions: lymphoblastoid cells
# [6] = Cytotoxicity against human HeLa-MAGI-CCR5 cells
# [7] = Cytotoxicity against PBMC (unknown origin)
# [8] = tested on: Human immunodeficiency virus 1; test: Antiviral activity against HIV-1 LAV infected in human CEM cells; assay type: functional, organism-based; conditions: Human immunodeficiency virus 1, LAV, CCRF-CEM
# [9] = Cytotoxicity against human CEM cells measured after 6 days; conditions: CEM cells (CCRF-CEM)
# [10] = Oral bioavailability in rat; conditions: in vivo
# [11] = Oral bioavailability in mouse; conditions: in vivo
# [12] = Oral bioavailability in cynomolgus monkey; conditions: in vivo
# [13] = tested on: Human immunodeficiency virus 1; test: Antiviral activity against HIV-1 infected in human MT4 cells assessed as reduction in virus induced cytopathic effect; assay type: functional, organism-based; conditions: Human immunodeficiency virus 1, MT4
# [14] = Inhibition of HIV-1 integrase by multiple well plate integration assay; parameters: species or system Human immunodeficiency virus
# [15] = Binding affinity to HIV protease assessed as inhibition constant; parameters: species or system Human immunodeficiency virus
# [16] = tested on: Human immunodeficiency virus; test: Antiviral activity against HIV; assay type: functional, organism-based; conditions: Human immunodeficiency virus 1
# [17] = tested on: Human immunodeficiency virus 1; test: Antiviral activity against HIV-1 IIIB infected in human H9 cells; assay type: functional, organism-based; conditions: Human immunodeficiency virus 1, IIIB
# [18] = Inhibition of HIV integrase strand transfer activity; parameters: species or system Human immunodeficiency virus
# [19] = biological target: Human immunodeficiency virus type 1 protease (Human immunodeficiency virus 1, UniProt Q72874); test: Inhibition of HIV-1 protease expressed in Escherichia coli incubated for 90 mins by fluorescence based analysis
# [20] = tested on: Human immunodeficiency virus 1; test: Antiviral activity against VSV-G pseudotyped HIV-1 infected in HEK293T cells assessed as inhibition of early stage viral replication preincubated with cells for 30 mins followed by viral infection for 3 hrs and measured 48 hrs after media replacement with compound by luciferase assay; assay type: functional, organism-based; conditions: Human immunodeficiency virus 1, HEK-293T
# [21] = tested on: Human immunodeficiency virus 1; test: Antiviral activity HIV-1 infected in HEK293T cells assessed as inhibition of late stage viral replication; assay type: functional, organism-based; conditions: Human immunodeficiency virus 1, HEK-293T
# [22] = Cytotoxicity against HEK293T cells incubated for 72 hrs by MTT assay; assay type: toxicity, cell-based, HEK-293T; conditions: human
# [23] = tested on: Human immunodeficiency virus 1; test: Antiviral activity against HIV-1 infected in human PBMC; assay type: functional, organism-based; conditions: Human immunodeficiency virus 1, PBMC
# [24] = biological target: Human immunodeficiency virus type 1 Gag protein (Human immunodeficiency virus 1, UniProt Q77YG1); test: Binding affinity to HIV1 Gag assessed as dissociation constant
# [25] = Metabolic stability in rhesus monkey hepatocytes assessed as half-life; assay type: ADME, cell-based, Macaca mulatta, Hepatocyte
# [26] = tested on: Human immunodeficiency virus 1; test: Antiviral activity against HIV-1 LAV infected in human CEM-SS cells assessed as reduction in virus-induced cytopathic effect by XTT assay; assay type: functional, organism-based; conditions: Human immunodeficiency virus 1, LAV
# [27] = tested on: Human immunodeficiency virus 1; test: Antiviral activity against HIV-1 SK-1 infected in human CEM-SS cells assessed as reduction in virus-induced cytopathic effect by XTT assay; assay type: functional, organism-based; conditions: Human immunodeficiency virus 1, SK-1, CEM-SS
# [28] = tested on: Human immunodeficiency virus 1; test: Antiviral activity against HIV-1 214 infected in human CEM-SS cells assessed as reduction in virus-induced cytopathic effect by XTT assay; assay type: functional, organism-based; conditions: Human immunodeficiency virus 1, 214, CEM-SS
# [29] = tested on: Human immunodeficiency virus 1; test: Antiviral activity against HIV-1 205 infected in human CEM-SS cells assessed as reduction in virus-induced cytopathic effect by XTT assay; assay type: functional, organism-based; conditions: Human immunodeficiency virus 1, 205, CEM-SS
# [30] = tested on: Human immunodeficiency virus 1; test: Antiviral activity against HIV-1 G infected in human CEM-SS cells assessed as reduction in virus-induced cytopathic effect by XTT assay; assay type: functional, organism-based; conditions: Human immunodeficiency virus 1, G
# [31] = tested on: Human immunodeficiency virus 1; test: Antiviral activity against HIV-1 TP-1 infected in human CEM-SS cells assessed as reduction in virus-induced cytopathic effect by XTT assay; assay type: functional, organism-based; conditions: Human immunodeficiency virus 1, TP-1, CEM-SS
# [32] = tested on: Human immunodeficiency virus 1; test: Antiviral activity against HIV-1 KELL infected in human CEM-SS cells assessed as reduction in virus-induced cytopathic effect by XTT assay; assay type: functional, organism-based; conditions: Human immunodeficiency virus 1, KELL
# [33] = tested on: Human immunodeficiency virus 1; test: Antiviral activity against HIV-1 PM16 infected in human CEM-SS cells assessed as reduction in virus-induced cytopathic effect by XTT assay; assay type: functional, organism-based; conditions: Human immunodeficiency virus 1, PM16, CEM-SS
smiles,measurement,setting,value
CCC(Cc1ccccc1)c1cc(O)c(C(CC)c2ccccc2)c(=O)o1 (centres undefined),IC50,[1],3000 nM
Nc1nc(=O)n([C@@H]2CS[C@H](CO)O2)cc1F [EMTRICITABINE],IC50,[2],1 nM
same,IC50,[3],1 nM
same,IC50,[4],1 nM
same,CC50,[5],> 200000 nM
same,CC50,[6],> 200000 nM
same,CC50,[7],> 200000 nM
same,IC50,[8],9 nM
same,CC50 at 144 h,[9],> 100000 nM
same,bioavailability,[10],~58%
same,bioavailability,[11],~58%
same,bioavailability,[12],~58%
Cc1c(Sc2ccccc2)n(COCCO)c(=O)[nH]c1=O [HEPT],IC50,[13],7000 nM
O=C(O)/C(O)=C/C(=O)C1C=Nc2ccc(Cl)cc21 (centres undefined),IC50,[14],2300 nM
CCC[C@@]1(CCc2ccccc2)CC(O)=C([C@H](CC)c2cccc(NS(=O)(=O)c3ccc(C(F)(F)F)cn3)c2)C(=O)O1,Ki,[15],8 nM
same,IC50,[16],30 nM
same,IC50,[17],30 nM
same,IC90,[17],100 nM
O=C(NCc1c(F)cc(F)cc1F)c1cn2c(c(O)c1=O)C(=O)N1[C@H]3CC[C@H](C3)O[C@@H]1C2 [BICTEGRAVIR],IC50,[18],2.4 nM
CCCC(CCc1ccccc1)c1cc(O)c(C(CC)c2ccccc2)c(=O)o1 (centres undefined),Ki,[19],35 nM
CC(C)(C#Cc1ccc(-c2ccc(Cl)c3c(NS(C)(=O)=O)nn(CC(F)(F)F)c23)c([C@H](Cc2cc(F)cc(F)c2)NC(=O)Cn2nc(C(F)(F)F)c3c2C(F)(F)[C@@H]2C[C@H]32)n1)S(C)(=O)=O,IC50,[20],0.055 nM
same,IC50,[21],0.314 nM
same,CC50 at 72 h,[22],> 50000 nM
same,IC50,[23],0.05 nM
same,Kd,[24],1.1 nM
same,half-life,[25],202 h
O=S1(c2ccccc2)=NC(=S)Nc2ccccc21 (centres undefined),IC50,[26],950 nM
same,IC50,[27],950 nM
same,IC50,[28],950 nM
same,IC50,[29],950 nM
same,IC50,[30],950 nM
same,IC50,[31],950 nM
same,IC50,[32],950 nM
same,IC50,[33],950 nM
